Assay results taken from patent US10632324B2, “Method for the treatment of skin tissues” (9127-4910 Quebec Inc., priority 2017, dated 2020).
Several values for one entry are separate records, joined by “and”; a condition that tells them apart may be missing. Identical values can stand only once.

Tests used:
[1] = system: conversion of 5-ALA to protoporphyrin IX (PpIX); test: Fluoderm fluorescence after 940 nm photopreparation and 5-ALA, one subject (Example 11); type: in vivo, human
Experimental: In order to measure the effect of photopreparation on the skin we used an LED device (Lumiphase 940 nm, CW and Pulsed, irradiance: 70 mW/cm2, OpusMed, Montreal, Canada) prior to the application of a photosensitizer (5-ALA: Levulan, Kerastick, DUSA Pharmaceuticals, USA). We tested both CW and sequential pulsing modes 24 h and 30/15 minutes (total fluence 63 J/cm^2 before the application of 5-ALA for 3 hours). Following an incubation time of 3 hours, we measured the fluorescence induced by the conversion of 5-ALA to protoporphyrin IX (PpIX) with a dedicated device (Fluoderm, Dia-Medico ApS, Danemark). The pulsed radiation, referred to as D50 hereinbelow, consisted in pulse trains of 4 pulses with pulses lasting 500 μs separated with an inter-pulse interval within each train of 150 μs. The pulse trains were separated from each other by 1550 μs. Higher numbers mean higher conversion to PpIX, and thus indicate that the PDT treatment will be more efficient. All parameters were tested on adjacent portion of the subject's skin. The experiment was performed on the back of a person with phototype I.

[2] = system: conversion of 5-ALA to PpIX; test: FluoDerm fluorescence after 940 nm irradiation 8-53 h before 5-ALA, two subjects (Example 11); type: in vivo, human; set-up: unit not given here
Experimental: In view of these promising results, another study with even longer delays before application of 5-ALA was performed. The back skin of two test subjects was irradiated with continuous wavelength and pulsed infrared light at 940 nm. These irradiations took place 50-53, 24-29, and 8-14 hours prior to the application of the 5-ALA. After a three-hour incubation period with the compound, a FluoDerm™ device was used to measure the fluorescence of the skin ([…]) a direct indication of the activity of 5-ALA. 5-ALA must penetrate the skin and then be converted to PpIX before any fluorescence increase can be observed. […] Conclusion: This preconditioning method uses a temperature-independent mechanism of action via cell signaling pathways as in photobiomodulation.

[3] = system: transformation of 5-aminolevulinic acid to protoporphyrin IX (PpIX); test: FluoDerm fluorescence after 940 nm photopreparation 24, 48, 72 h before 5-ALA, 4 subjects (Example 12); type: in vivo, human
Experimental: To obtain greater statistical power and investigate even longer term effects, the above study was repeated on other subjects. Below, the results or comparison between the D50 and CW protocols are shown for 4 subjects. Irradiation was performed in accordance with the pattern of FIG. 44, with measurements taken 24, 48 and 72 hours after pre-treatment with D50 and CW, instead of 8-14, 24-29 and 50-53.
More specifically, delineated treatment areas were drawn on each subject's back. These spaces had to be close enough together to enable simultaneous irradiation downstream in the experiment. Areas of each patient's back were then irradiated according to the predetermined photopreparation treatment parameter at the appropriate pre-5-ALA application and activation time. In this study, two light pulsing options were compared—pulsed versus continuous. Both options were set at 940 nm. The time set between the photopreparation treatment and the 5-ALA application was the other variable tested. […] Following the appropriately timed photopreparation treatment of the correct back skin area, 20% 5-aminolevulinic acid (Levulan Kerastick, Dusa, Wilmington, USA) was applied to the patient's back. After the topical application, an incubation time of 3 hours was set to optimize the transformation of the medication to protoporphyrin IX (PpIX). Finally, using the Fluoroderm device, the fluorescence of each subject's back areas was measured. The recorded data was statistically analyzed.
Besides the 20% 5-aminolevulinic acid (Levulan Kerastick, Dusa, Wilmington, USA) used as the photosensitizer and the FluoDerm (Dia-Medico, Denmark) to quantify the fluorescence of each patient's back, a prototype able to irradiate the back skin areas with pulsed (D50 pulsing condition) and continuous wavelength (CW) light at 940 nm was built. This machine was assembled at RoseLab Skin Optics Research Laboratory (Montreal, Canada). The D50-940 nm condition was made up of 940 nm light with a pulsing pattern consisting of a 50% duty cycle delivered in the repeating pattern (in μseconds where PD, PI, and PTI mean pulse duration, pulse interval, and pulse train interval, respectively) of: PD 500 on, PI 150 off, PD 500 on, PI 150 off, PD 500 on and PTI 1550 off (FIG. 3). The irradiance delivered for all conditions (D50 and CW) was 75 mW/cm^2 and the fluence delivered for all conditions was 67.5 J/cm^2 (940 nm LED treatment duration D50=30 min and CW=15 min).
The FluoDerm measured each tested condition. These measurements were then compared to the control (only 5-ALA without photopreparation). The means of these proportional changes were calculated. The final results were categorized by every photopreparation condition (72, 48 and 24 hours pre-treatment). A 95% confidence interval was calculated for each mean.
The data is analyzed and presented as X-fold changes (or differences) as compared to the just 5-ALA control below. Higher number show a higher effect of pre-treatment with IR radiation.

[4] = system: actinic keratosis lesions; test: Split-face radiant IR skin preparation prior to PDT, actinic keratosis of face and scalp (Example 5); details: single PDT treatment

## NCC(=O)CCC(=O)O [5-ALA, 5-aminolevulinic acid]
[1]; PP 15 min pre-5-ALA: CW - 15 min
  Fold increase of fluorescence compared to 5-ALA alone: 1.09 fold and 1.03 fold
[1]; PP 15 min pre-5-ALA: CW - 15 min, 940 nm, 70 mW/cm2
  Fluoderm Measurements, Post 3 hour incubation (5-ALA): 51
[1]; PP 30 min pre-5-ALA: D50 - 30 min
  Fold increase of fluorescence compared to 5-ALA alone: 1.19 fold
[1]; PP 30 min pre-5-ALA: D50 - 30 min, 940 nm, 70 mW/cm2
  Fluoderm Measurements, Post 3 hour incubation (5-ALA): 59
[1]; PP 24 h pre-5-ALA: CW - 15 min
  Fold increase of fluorescence compared to 5-ALA alone: 1.13 fold
[1]; PP 24 h pre-5-ALA: CW - 15 min, 940 nm, 70 mW/cm2
  Fluoderm Measurements, Post 3 hour incubation (5-ALA): 56
[1]; PP 24 h pre-5-ALA: D50 - 30 min
  Fold increase of fluorescence compared to 5-ALA alone: 1.45 fold
[1]; PP 24 h pre-5-ALA: D50 - 30 min, 940 nm, 70 mW/cm2
  Fluoderm Measurements, Post 3 hour incubation (5-ALA): 72
[1]; Positive control: 5-ALA alone
  Fold increase of fluorescence compared to 5-ALA alone: 1 fold
[1]; Positive control: 5-ALA alone, no photopreparation
  Fluoderm Measurements, Post 3 hour incubation (5-ALA): 49.5
[2]; subject one, 14 hour time points, CW-940, 3 h incubation
  Fluoderm Reading: 51.0
[2]; subject one, 14 hour time points, D50-940, 3 h incubation
  Fluoderm Reading: 44.5
[2]; subject one, 24 hour time points, CW-940, 3 h incubation
  Fluoderm Reading: 48.0
[2]; subject one, 24 hour time points, D50-940, 3 h incubation
  Fluoderm Reading: 36.5
[2]; subject one, 50 hour time points, CW-940, 3 h incubation
  Fluoderm Reading: 45.0
[2]; subject one, 50 hour time points, D50-940, 3 h incubation
  Fluoderm Reading: 35.0
[2]; subject one, Control, Just 5-ALA, no irradiation
  Fluoderm Reading: 37.0
[2]; subject two, 8 hour time points, CW-940, 3 h incubation
  Fluoderm Reading: 44.0
[2]; subject two, 8 hour time points, D50-940, 3 h incubation
  Fluoderm Reading: 49.0
[2]; subject two, 8 hour time points, S50-940, 3 h incubation
  Fluoderm Reading: 51.0
[2]; subject two, 29 hour time points, CW-940, 3 h incubation
  Fluoderm Reading: 47.0
[2]; subject two, 29 hour time points, D50-940, 3 h incubation
  Fluoderm Reading: 52.0
[2]; subject two, 29 hour time points, S50-940, 3 h incubation
  Fluoderm Reading: 47.5
[2]; subject two, 53 hour time points, CW-940, 3 h incubation
  Fluoderm Reading: 55.0
[2]; subject two, 53 hour time points, D50-940, 3 h incubation
  Fluoderm Reading: 46.5
[2]; subject two, 53 hour time points, S50-940, 3 h incubation
  Fluoderm Reading: 55.0
[2]; subject two, Control, Just 5-ALA, no irradiation
  Fluoderm Reading: 46.0
[3]; 24 hours pre-treatment, CW-940, 75 mW/cm2, 67.5 J/cm2
  X-fold change of fluorescence as compared to the just 5-ALA control, Mean: 1.18 fold
[3]; 24 hours pre-treatment, D50-940, 75 mW/cm2, 67.5 J/cm2
  X-fold change of fluorescence as compared to the just 5-ALA control, Mean: 1.27 fold
[3]; 48 hours pre-treatment, CW-940, 75 mW/cm2, 67.5 J/cm2
  X-fold change of fluorescence as compared to the just 5-ALA control, Mean: 1.34 fold
[3]; 48 hours pre-treatment, D50-940, 75 mW/cm2, 67.5 J/cm2
  X-fold change of fluorescence as compared to the just 5-ALA control, Mean: 1.08 fold
[3]; 72 hours pre-treatment, CW-940, 75 mW/cm2, 67.5 J/cm2
  X-fold change of fluorescence as compared to the just 5-ALA control, Mean: 1.05 fold
[3]; 72 hours pre-treatment, D50-940, 75 mW/cm2, 67.5 J/cm2
  X-fold change of fluorescence as compared to the just 5-ALA control, Mean: 0.94 fold
[4]; left side, no IR pre-treatment
  lesion clearance: 40%
[4]; right side, IR pre-treated (970 nm, 40 mW/cm2, 30 min), 90 min incubation
  lesion clearance: 60%
